Measurements reported in patent US20220289732A1, “HETEROCYCLIC WDR5 INHIBITORS AS ANTI-CANCER COMPOUNDS” (NOVARTIS AG, priority 2019, published 2022).

Tests used:
[1] = system: MV4-11 cells; test: MV4-11 6-day cell growth CTG (CellTiter-Glo) assay; format: cell-based; settings: Homo sapiens, MV4-11, 144 h, 6 days, read-out: (c) MLL/WDR5 cell proliferation assay//MLL/WDR5 proliferation MV4:11 Qualified AC50
Summary of the method: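 Exponentially growing MV4-11 AML cells (RPMI 1640, 10% FBS) seeded at 300 cells/well with 12-point 1:3 compound dilutions, top final concentration 50 μM. Viability read by CellTiter-Glo luminescence after 6 days at 37° C; % inhibition vs DMSO-only wells fitted to dose-response for IC50.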

[2] = molecular target: wild type MLL1 four-member complex (MLL1-4C) (Homo sapiens, UniProt P61964); test: MLL1 LC-MS assay (SAH production); format: biochemical; settings: read-out: (b) MLL LCMS Peptide Val.v.1 Qualified AC50
Summary of the method: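 MLL1-4C (30 nM final) was preincubated 20 min with compound (3-fold dilutions, 8 or 12 points) and SAM in Tris-HCl pH 8.0 buffer. H3K4me0 peptide (histone H3[1-21]-biotin) was then added, giving final 2.5 μM SAM and 10 μM substrate, and reactions ran 120 min at rt. After TFA/d4-SAH quench, SAH was quantified by LC-MS/MS and IC50 fitted from control-normalised activity.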

[3] = molecular target: WDR5 (Homo sapiens, UniProt P61964); test: WDR5 HTRF binding assay; settings: read-out: (a) WDR5 HTRF Pep Val v.1[Inhibitor/IC50]Qualified AC50
Summary of the method: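 6 nM WDR5 and 20 nM biotin-MLL1 WIN peptide (3762-3773) were incubated with compound (12-point, 3-fold dilutions) in pH 7.5 Hepes/NaCl/DTT buffer for 20 min at rt. Streptavidin-APC plus anti-His-Eu were then added for 1 hr, with HTRF read at 665/615. IC50 was fit from control-normalized activity; the counter assay used 15 nM biotin-PEG-His peptide.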

AC50 [2] | IC50 [3] | Compound | AC50 [1]
10 to 1000 nM | 10 to 1000 nM | CNc1nccn1Cc1cc2c(c(-c3cc(CO)ccc3Cl)c1)CCN(Cc1ccc(F)c(OC)c1)C2=O [Example 65, 5-(2-chloro-5-(hydroxymethyl)phenyl)-2-(4-fluoro-3-methoxybenzyl)-7-((2-(methylamino)-1H-imidazol-1-yl)methyl)-3,4-dihydroisoquinolin-1(2H)-one] | 10 to 1000 nM
10 to 1000 nM | 10 to 1000 nM | CNc1nccn1Cc1cc2c(c(-c3cn(C)nc3C(F)F)c1)CCN(Cc1ccc(F)c(OC)c1)C2=O [Example 66, 5-(3-(difluoromethyl)-1-methyl-1H-pyrazol-4-yl)-2-(4-fluoro-3-methoxybenzyl)-7-((2-(methylamino)-1H-imidazol-1-yl)methyl)-3,4-dihydroisoquinolin-1(2H)-one] | 10 to 1000 nM
10 to 1000 nM | 10 to 1000 nM | CNc1nccn1Cc1cc2c(c(-c3cc(CO)cnc3Cl)c1)CCN(Cc1cc(F)cc(Cl)c1)C2=O [Example 67, 5-(2-chloro-5-(hydroxymethyl)pyridin-3-yl)-2-(3-chloro-5-fluorobenzyl)-7-((2-(methylamino)-1H-imidazol-1-yl)methyl)-3,4-dihydroisoquinolin-1(2H)-one] | 10 to 1000 nM
10 to 1000 nM | 10 to 1000 nM | CNc1nccn1Cc1cc2c(c(-c3cc(CO)cnc3Cl)c1)CCN(Cc1cc(OC)c(F)cn1)C2=O [Example 68, 5-(2-chloro-5-(hydroxymethyl)pyridin-3-yl)-2-((5-fluoro-4-methoxypyridin-2-yl)methyl)-7-((2-(methylamino)-1H-imidazol-1-yl)methyl)-3,4-dihydroisoquinolin-1(2H)-one] | 10 to 1000 nM
10 to 1000 nM | 10 to 1000 nM | CNc1nccn1Cc1cc2c(c(-c3cc(CO)cnc3Cl)c1)CCN(Cc1ccc(F)c(C#N)c1)C2=O [Example 69, 5-((5-(2-chloro-5-(hydroxymethyl)pyridin-3-yl)-7-((2-(methylamino)-1H-imidazol-1-yl)methyl)-1-oxo-3,4-dihydroisoquinolin-2(1H)-yl)methyl)-2-fluorobenzonitrile] | 10 to 1000 nM
10 to 1000 nM | 10 to 1000 nM | CNc1nccn1Cc1cc2c(c(-c3cc(CO)cnc3Cl)c1)CCN(Cc1ccc(F)c(F)c1)C2=O [Example 70, 5-(2-chloro-5-(hydroxymethyl)pyridin-3-yl)-2-(3,4-difluorobenzyl)-7-((2-(methylamino)-1H-imidazol-1-yl)methyl)-3,4-dihydroisoquinolin-1(2H)-one] | 10 to 1000 nM
10 to 1000 nM | 10 to 1000 nM | CNc1nccn1Cc1cc2c(c(-c3cn(C)nc3C)c1)CCN([C@H](C)c1cc(OC)c(F)cn1)C2=O [Example 71, (R)-5-(1,3-dimethyl-1H-pyrazol-4-yl)-2-(1-(5-fluoro-4-methoxypyridin-2-yl)ethyl)-7-((2-(methylamino)-1H-imidazol-1-yl)methyl)-3,4-dihydroisoquinolin-1(2H)-one] | 10 to 1000 nM
10 to 1000 nM | 10 to 1000 nM | CNc1nccn1Cc1cc2c(c(-c3ccnn3C)c1)CCN(Cc1ccc(F)c(OC)c1)C2=O [Example 72, 2-(4-fluoro-3-methoxybenzyl)-5-(1-methyl-1H-pyrazol-5-yl)-7-((2-(methylamino)-1H-imidazol-1-yl)methyl)-3,4-dihydroisoquinolin-1(2H)-one] | 10 to 1000 nM
10 to 1000 nM | 10 to 1000 nM | CNc1nccn1Cc1cc2c(c(-c3cc(CO)cnc3Cl)c1)CCN(Cc1cccc(OC(F)F)c1)C2=O [Example 73, 5-(2-chloro-5-(hydroxymethyl)pyridin-3-yl)-2-(3-(difluoromethoxy)benzyl)-7-((2-(methylamino)-1H-imidazol-1-yl)methyl)-3,4-dihydroisoquinolin-1(2H)-one] | 10 to 1000 nM
10 to 1000 nM | 10 to 1000 nM | CNc1nccn1Cc1cc2c(c(-c3cc(CO)cnc3Cl)c1)CCN(Cc1ccc(F)c(OC(F)F)c1)C2=O [Example 74, 5-(2-chloro-5-(hydroxymethyl)pyridin-3-yl)-2-(3-(difluoromethoxy)-4-fluorobenzyl)-7-((2-(methylamino)-1H-imidazol-1-yl)methyl)-3,4-dihydroisoquinolin-1(2H)-one] | 10 to 1000 nM
10 to 1000 nM | 10 to 1000 nM | CNc1nccn1Cc1cc2c(c(-c3cn(C)nc3C#N)c1)CCN(Cc1ccc(F)c(OC)c1)C2=O [Example 77, 4-(2-(4-fluoro-3-methoxybenzyl)-7-((2-(methylamino)-1H-imidazol-1-yl)methyl)-1-oxo-1,2,3,4-tetrahydroisoquinolin-5-yl)-1-methyl-1H-pyrazole-3-carbonitrile] | 10 to 1000 nM
10 to 1000 nM | 10 to 1000 nM | CNc1nccn1Cc1cc2c(c(C3CC3)c1)CCN(Cc1cnc(F)c(OC)c1)C2=O [Example 79, 5-cyclopropyl-2-((6-fluoro-5-methoxypyridin-3-yl)methyl)-7-((2-(methylamino)-1H-imidazol-1-yl)methyl)-3,4-dihydroisoquinolin-1(2H)-one] | 10 to 1000 nM
10 to 1000 nM | 10 to 1000 nM | CCOc1cc([C@H](C)N2CCc3c(cc(Cn4ccnc4NC)cc3C3CC3)C2=O)cnc1C#N [Example 80, (S)-5-(1-(5-cyclopropyl-7-((2-(methylamino)-1H-imidazol-1-yl)methyl)-1-oxo-3,4-dihydroisoquinolin-2(1H)-yl)ethyl)-3-ethoxypicolinonitrile] | 10 to 1000 nM
10 to 1000 nM | 10 to 1000 nM | CCOc1cc([C@H](C)N2CCc3c(cc(Cn4ccnc4NC)cc3C3CC3)C2=O)ncc1F [Example 81, (S)-5-cyclopropyl-2-(1-(4-ethoxy-5-fluoropyridin-2-yl)ethyl)-7-((2-(methylamino)-1H-imidazol-1-yl)methyl)-3,4-dihydroisoquinolin-1(2H)-one] | 10 to 1000 nM
10 to 1000 nM | 10 to 1000 nM | CCOc1cc([C@@H](C)N2CCc3c(cc(Cn4ccnc4NC)cc3C3CC3)C2=O)ncc1C#N [Example 82, (R)-6-(1-(5-cyclopropyl-7-((2-(methylamino)-1H-imidazol-1-yl)methyl)-1-oxo-3,4-dihydroisoquinolin-2(1H)-yl)ethyl)-4-ethoxynicotinonitrile] | 10 to 1000 nM
10 to 1000 nM | 10 to 1000 nM | CCOc1cc([C@H](C)N2CCc3c(cc(Cn4ccnc4NC)cc3C3CC3)C2=O)ncc1C#N [Example 83, (S)-6-(1-(5-cyclopropyl-7-((2-(methylamino)-1H-imidazol-1-yl)methyl)-1-oxo-3,4-dihydroisoquinolin-2(1H)-yl)ethyl)-4-ethoxynicotinonitrile] | 10 to 1000 nM
10 to 1000 nM | 10 to 1000 nM | CCOc1cc(CN2CCc3c(cc(Cn4ccnc4NC)cc3C3CC3)C2=O)cnc1C#N [Example 84, 5-((5-cyclopropyl-7-((2-(methylamino)-1H-imidazol-1-yl)methyl)-1-oxo-3,4-dihydroisoquinolin-2(1H)-yl)methyl)-3-ethoxypicolinonitrile] | 10 to 1000 nM
10 to 1000 nM | 10 to 1000 nM | CNc1nccn1Cc1cc2c(c(C3CC3)c1)CCN([C@@H](C)c1cc(OC)c(F)cn1)C2=O [Example 85, (S)-5-cyclopropyl-2-(1-(5-fluoro-4-methoxypyridin-2-yl)ethyl)-7-((2-(methylamino)-1H-imidazol-1-yl)methyl)-3,4-dihydroisoquinolin-1(2H)-one] | 10 to 1000 nM
10 to 1000 nM | 10 to 1000 nM | CCn1nc(CN2CCc3c(cc(Cn4ccnc4NC)cc3C3CC3)C2=O)cc1OC [Example 86, 5-cyclopropyl-2-((1-ethyl-5-methoxy-1H-pyrazol-3-yl)methyl)-7-((2-(methylamino)-1H-imidazol-1-yl)methyl)-3,4-dihydroisoquinolin-1(2H)-one] | 10 to 1000 nM
10 to 1000 nM | 10 to 1000 nM | CCOc1cc(CN2CCc3c(cc(Cn4ccnc4NC)cc3C3CC3)C2=O)nn1C [Example 87, 5-cyclopropyl-2-((5-ethoxy-1-methyl-1H-pyrazol-3-yl)methyl)-7-((2-(methylamino)-1H-imidazol-1-yl)methyl)-3,4-dihydroisoquinolin-1(2H)-one] | 10 to 1000 nM
10 to 1000 nM | < 10 nM | CNc1nccn1Cc1cc2c(c(N3CCCC3)c1)CCN([C@@H](C)c1cc(OC)c(F)cn1)C2=O [Example 89, (S)-2-(1-(5-fluoro-4-methoxypyridin-2-yl)ethyl)-7-((2-(methylamino)-1H-imidazol-1-yl)methyl)-5-(pyrrolidin-1-yl)-3,4-dihydroisoquinolin-1(2H)-one] | 10 to 1000 nM
10 to 1000 nM | 10 to 1000 nM | CCOc1cc([C@H](C)N2CCc3c(cc(Cn4ccnc4NC)cc3C(F)F)C2=O)ncc1F [Example 91, (S)-5-(difluoromethyl)-2-(1-(4-ethoxy-5-fluoropyridin-2-yl)ethyl)-7-((2-(methylamino)-1H-imidazol-1-yl)methyl)-3,4-dihydroisoquinolin-1(2H)-one] | 10 to 1000 nM
